Reference: ChEMBL document CHEMBL1201862, “PubChem BioAssay data set” (2004)
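Growth conditions: 96-well plates. Treatment: test compound, 48 hours, 5 concentrations. Analysis: linear interpolation between bracketing concentrations; unreached endpoints set to highest concentration. GI50 = concentration required for 50% inhibition of growth.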 The source made the active and inactive calls. Rule as the data show it: active = GI50 up to about 1.1 µM and inactive = higher.

Tests used:
Test in all cases: NCI tumour cell line growth inhibition, 48 h
HL-60 = tested on: HL-60
UACC-257 = tested on: UACC-257
NCI-H522 = tested on: NCI-H522
NCI-H226 = tested on: NCI-H226
SF-268 = tested on: SF-268
UO-31 = tested on: UO-31
NCI-H23 = tested on: NCI-H23
MDA-MB-231 = tested on: MDA-MB-231
A498 = tested on: A498
HCT-15 = tested on: HCT-15
ACHN = tested on: ACHN
Hs-578T = tested on: Hs-578T
DU-145 = tested on: DU-145
KM12 = tested on: KM12
CCRF-CEM = tested on: CCRF-CEM
PC-3 = tested on: PC-3
MDA-MB-435 = tested on: MDA-MB-435
SF-295 = tested on: SF-295
MDA-N = tested on: MDA-N
MCF7 = tested on: MCF7

With `CCC(C)C1NC(=O)C(NC(=O)C(CC(C)C)N(C)C(=O)[C@@H]2C=CCN2C(=O)[C@H](C)O)C(C)OC(=O)[C@H](Cc2ccc(OC)cc2)N(C)C(=O)[C@@H]2CCCN2C(=O)[C@H](CC(C)C)NC(=O)C(C)C(=O)[C@H](C(C)C)OC(=O)CC1O` (stereo partly drawn) the GI50 (HL-60) was 0.00299 µM (active), the GI50 (UACC-257) was 0.00311 µM (active) and the GI50 (NCI-H522) was 0.00111 µM (active). For the same compound, the GI50 (NCI-H226) was < 0.01 µM (active), the GI50 (SF-268) was 0.00243 µM (active) and the GI50 (UO-31) was 0.0138 µM (active). For the same compound, the GI50 (NCI-H23) was 0.00184 µM (active), the GI50 (MDA-MB-231) was 0.00608 µM (active) and the GI50 (A498) was 0.00671 µM (active). For the same compound, the GI50 (HCT-15) was 0.0239 µM, the GI50 (ACHN) was 0.00402 µM (active) and the GI50 (Hs-578T) was < 0.01 µM (active). For the same compound, the GI50 (DU-145) was 0.00501 µM (active), the GI50 (KM12) was < 0.01 µM (active) and the GI50 (CCRF-CEM) was 0.00164 µM (active). The GI50 (PC-3) was 0.00291 µM (active), the GI50 (MDA-MB-435) was 0.00277 µM (active) and the GI50 (SF-295) was 0.00248 µM (active). For the same compound, the GI50 (MDA-N) was 0.00293 µM (active) and the GI50 (MCF7) was 0.00164 µM (active).
In the case of `CCOC(=O)NC(OC)(C(F)(F)F)C(F)(F)F`, the GI50 (HL-60) is reported as > 100 µM (inactive), the GI50 (UACC-257) is reported as > 100 µM (inactive) and the GI50 (NCI-H522) is reported as > 100 µM (inactive). The GI50 (NCI-H226) was > 100 µM (inactive), the GI50 (SF-268) was > 100 µM (inactive) and the GI50 (UO-31) was > 100 µM (inactive). The GI50 (NCI-H23) was > 100 µM (inactive), the GI50 (MDA-MB-231) was > 100 µM (inactive) and the GI50 (A498) was > 100 µM (inactive). For the same compound, the GI50 (HCT-15) was greater than 100 µM, the GI50 (ACHN) was > 100 µM (inactive) and the GI50 (Hs-578T) was > 100 µM (inactive). The GI50 (DU-145) was > 100 µM (inactive), the GI50 (CCRF-CEM) was > 100 µM (inactive) and the GI50 (PC-3) was > 100 µM (inactive). The GI50 (MDA-MB-435) was > 100 µM (inactive), the GI50 (SF-295) was > 100 µM (inactive) and the GI50 (MDA-N) was > 100 µM (inactive). The GI50 (MCF7) was > 100 µM (inactive).
In the case of `O=C(NCCN1CCCCC1)c1ccc(Br)cc1`, the GI50 (HL-60) is reported as 2.81 µM (inactive), the GI50 (UACC-257) is reported as > 100 µM (inactive) and the GI50 (NCI-H522) is reported as > 100 µM (inactive). For the same compound, the GI50 (SF-268) was > 100 µM (inactive), the GI50 (UO-31) was > 100 µM (inactive) and the GI50 (NCI-H23) was > 100 µM (inactive). The GI50 (MDA-MB-231) was > 100 µM (inactive), the GI50 (A498) was 42.8 µM (inactive) and the GI50 (HCT-15) was greater than 100 µM. For the same compound, the GI50 (ACHN) was > 100 µM (inactive), the GI50 (Hs-578T) was > 100 µM (inactive) and the GI50 (DU-145) was > 100 µM (inactive). For the same compound, the GI50 (KM12) was > 100 µM (inactive), the GI50 (PC-3) was > 100 µM (inactive) and the GI50 (MDA-MB-435) was > 100 µM (inactive). The GI50 (SF-295) was > 100 µM (inactive), the GI50 (MDA-N) was > 100 µM (inactive) and the GI50 (MCF7) was > 100 µM (inactive).
`NC1CCCCC1.O=P(O)(O)C(O)/C=C/c1ccccc1` (stereo not drawn) was tested, and the GI50 (HL-60) was > 100 µM (inactive), the GI50 (UACC-257) was > 100 µM (inactive) and the GI50 (NCI-H522) was > 100 µM (inactive). The GI50 (NCI-H226) was > 100 µM (inactive), the GI50 (SF-268) was > 100 µM (inactive) and the GI50 (UO-31) was > 100 µM (inactive). The GI50 (NCI-H23) was > 100 µM (inactive), the GI50 (MDA-MB-231) was > 100 µM (inactive) and the GI50 (A498) was > 100 µM (inactive). For the same compound, the GI50 (HCT-15) was greater than 100 µM, the GI50 (ACHN) was > 100 µM (inactive) and the GI50 (Hs-578T) was > 100 µM (inactive). For the same compound, the GI50 (DU-145) was > 100 µM (inactive), the GI50 (KM12) was > 100 µM (inactive) and the GI50 (PC-3) was > 100 µM (inactive). For the same compound, the GI50 (MDA-MB-435) was > 100 µM (inactive), the GI50 (SF-295) was > 100 µM (inactive) and the GI50 (MDA-N) was > 100 µM (inactive). The GI50 (MCF7) was > 100 µM (inactive).
`CCCSc1cc(Cl)c(C)cc1S(=O)(=O)n1ccnc1O` was tested, and the GI50 (UACC-257) was > 100 µM (inactive), the GI50 (NCI-H522) was > 100 µM (inactive) and the GI50 (NCI-H226) was > 100 µM (inactive). The GI50 (SF-268) was > 100 µM (inactive), the GI50 (UO-31) was > 100 µM (inactive) and the GI50 (NCI-H23) was > 100 µM (inactive). The GI50 (MDA-MB-231) was > 100 µM (inactive), the GI50 (A498) was > 100 µM (inactive) and the GI50 (HCT-15) was greater than 100 µM. The GI50 (ACHN) was > 100 µM (inactive), the GI50 (Hs-578T) was > 100 µM (inactive) and the GI50 (DU-145) was > 100 µM (inactive). For the same compound, the GI50 (KM12) was > 100 µM (inactive), the GI50 (CCRF-CEM) was > 100 µM (inactive) and the GI50 (PC-3) was > 100 µM (inactive). For the same compound, the GI50 (MDA-MB-435) was > 100 µM (inactive), the GI50 (SF-295) was > 100 µM (inactive) and the GI50 (MDA-N) was > 100 µM (inactive). For the same compound, the GI50 (MCF7) was > 100 µM (inactive).
In the case of `COC(=O)Nc1nc2cc(NS(=O)(=O)c3ccc(Cl)cc3)ccc2[nH]1`, the GI50 (HL-60) is reported as 4.15 µM (inactive), the GI50 (NCI-H522) is reported as 3.4 µM (inactive) and the GI50 (NCI-H226) is reported as 10.6 µM (inactive). The GI50 (SF-268) was 10.4 µM (inactive), the GI50 (UO-31) was 11.7 µM (inactive) and the GI50 (NCI-H23) was 9.93 µM (inactive). The GI50 (MDA-MB-231) was 8.34 µM (inactive), the GI50 (A498) was 3.05 µM (inactive) and the GI50 (HCT-15) was 6.44 µM. For the same compound, the GI50 (ACHN) was 14.2 µM (inactive), the GI50 (Hs-578T) was 1.99 µM (inactive) and the GI50 (DU-145) was 20.4 µM (inactive). The GI50 (KM12) was 3.61 µM (inactive), the GI50 (CCRF-CEM) was 4.35 µM (inactive) and the GI50 (PC-3) was 8.55 µM (inactive). The GI50 (MDA-MB-435) was 2.17 µM (inactive), the GI50 (SF-295) was 4.45 µM (inactive) and the GI50 (MDA-N) was 2.18 µM (inactive). For the same compound, the GI50 (MCF7) was 4.08 µM (inactive).
`C=C[C@]1(C)C[C@@H](OC(=O)CO)[C@@]2(C)[C@H](C)CC[C@]3(CCC(=O)[C@H]32)[C@@H](C)[C@@H]1O` was tested, and the GI50 (HL-60) was 49.8 µM (inactive), the GI50 (UACC-257) was > 76.6 µM (inactive) and the GI50 (NCI-H522) was 67.9 µM (inactive). For the same compound, the GI50 (NCI-H226) was > 100 µM (inactive), the GI50 (SF-268) was > 83.2 µM (inactive) and the GI50 (UO-31) was > 63.5 µM (inactive). The GI50 (NCI-H23) was > 70.1 µM (inactive), the GI50 (MDA-MB-231) was > 100 µM (inactive) and the GI50 (A498) was > 54.6 µM (inactive). For the same compound, the GI50 (HCT-15) was greater than 94.8 µM, the GI50 (ACHN) was > 93.5 µM (inactive) and the GI50 (Hs-578T) was > 53.1 µM (inactive). For the same compound, the GI50 (DU-145) was > 100 µM (inactive), the GI50 (KM12) was > 100 µM (inactive) and the GI50 (PC-3) was > 55.2 µM (inactive). For the same compound, the GI50 (MDA-MB-435) was > 68.1 µM (inactive), the GI50 (SF-295) was > 76.4 µM (inactive) and the GI50 (MDA-N) was > 100 µM (inactive). The GI50 (MCF7) was 21.5 µM (inactive).
